For assay [1], the system named is human esophageal cancer cell line (Eca-109). The experiment in a line: CCK-8 antiproliferative assay, Eca-109. In kind it is cell-based. To be noted: Eca-109, CCK-8, 72 h incubation. The source says:
(§1) The in vitro antiproliferative properties of complexes 1–6 against Eca-109, A549 and Bel-7402 tumor lines were examined by employing the CCK-8 assay with cisplatin as a positive control. […] It is interesting that the different cells respond distinctively to these complexes. The complexes display remarkable cytotoxicity against Eca-109 in comparison to A549 and Bel-7402. […] Compared with that of zinc chloride complexes, the antiproliferative activity of these complexes is stronger. This activity of the bromide complexes follows the order of 1 > 3 > 5 and that of the iodide complexes is 2 > 4 > 6. […] It is worth mentioning that, among these compounds, the order of the activity is consistent with the electronegativity values (methylsulfonyl (−2.96) < methoxy (−2.86) < methyl (−2.28) of the substituents.
(§2) In this assay, human esophageal cancer cell line (Eca-109), human lung cancer cell line (A549), human hepatocellular carcinoma cell line (Bel-7402) and mouse monocyte macrophage (RAW264.7) were used to evaluate the antiproliferative activities or cytotoxicity in vitro by CCK-8 assay for determining cell viability with cisplatin as the positive control. All the cells are purchased from the American Type Culture Collection (Manassas, VA, USA). The cells were cultured in 100 µL complete DMEM growth media containing 10% FBS and 1% PS. First, 3000 cells were added to 96-well plates and were cultured overnight in a humidified atmosphere at 37 °C with 5% CO2. Then, complexes 1–6 and cisplatin were diluted with complete DMEM growth media to obtain the working concentration, which was added to the tissue culture plate and incubated for 72 h. The CCK-8 solution was added to each well. After 3 h incubation, the absorbance of each well at 490 nm was measured using an enzyme labeling instrument (Tecan, Grödig, Salzburg, Austrla). Cell morphology was measured and imaged by an inverted microscope (Nikon eclipses TS100, Tokyo, Japan) and a Nikon digital camera (Tokyo, Japan). The 50% inhibitive concentration (IC50) was calculated by Graph Pad Prism 5.0 (San Diego, CA, USA).

The test system of assay [2] is human hepatocellular carcinoma cell line (Bel-7402). The experiment in a line: CCK-8 antiproliferative assay, Bel-7402. In kind it is cell-based. As to conditions: Bel-7042, CCK-8, 72 h incubation.
Source text: as §1, §2
A general note: Formazan colour is commonly taken as a measure of viable cells.

Assay [3] has as its target T1, BSA (Bos taurus, UniProt P02769).
T1 construct: purchased Asbio
Put plainly: BSA fluorescence quenching titration (Stern-Volmer, Scatchard). To be noted: 1.6 μM BSA, Tris-HCl buffer; for Ksv (Stern-Volmer quenching constant): excitation 280 nm; for n (binding site number): Scatchard equation; for Kq (quenching rate constant): τ0 = 10^−8 s. In kind it is binding, bovine. From the text: The structure and transmission characteristics of BSA are similar to HSA [36]. BSA was used instead of HSA for drug delivery due to its ease to purify and stability. The binding of metal complexes to proteins was studied by fluorescence spectrum titration. Endogenous fluorescence of BSA comes from residues as tryptophan (Trp), tyrosine (Tyr) and phenylalanine (Phe), and conformational changes of BSA-binding metal complexes are obtained by observing the fluorescence of Trp residues at 350 nm. […] The same phenomenon occurs for the other compounds (shown in Figure S22, Supplementary Materials). […] This appearance may be due to a resonant energy transfer. […] The Stern–Volmer equation [37] (Equation (1)) was used to study the quenching mechanism of BSA and the complexes:I0/I = 1 + Kqτ0[Q] = 1 + Ksv[Q](1) where the fluorescence intensity of the protein is expressed by I0 and I in absence and in presence of quencher, respectively; Ksv is the Stern–Volmer quenching rate constant; Kq is the quenching rate constant; and τ0 and [Q] represent the lifetime of fluorescent molecule in absence of quencher (valued 10^−8 s) and quencher concentration, respectively. The maximum causing a value of dynamic quenching in biopolymers is 2 × 10^10 M^−1 S^−1 [23].
Calculation of the binding constants (Kb) was achieved according to the Scatchard equation [38] (Equation (2)):log [(I0 − I)/I] = logKb + nlog[Q](2) where Kb and n represent the binding constant and the binding site number, respectively. The binding constants Kb and the binding site number were obtained from the intercept and slope of the double logarithm regression plot between log [(I0 − I)/I] and log [Q]. The binding constant (>104 L mol^−1) was obtained under the condition of high binding affinity. […] It can be seen in Figure 7 that the absorption spectra of the complexes partially overlap with the […] spectrum of BSA.
Bovine serum albumin (BSA) was dissolved in a Tris-HCl buffer (pH = 7.4) solution to prepare a 1.6 × 10^−6 M BSA solution. The protein concentration was measured by spectrophotometry at 280 nm with the extinction coefficient of 44,300 M^−1 cm^−1. Stock solutions of complexes 1–6 (1 × 10^−2 M) were prepared in DMSO. The emission spectrum (300–600 nm) of BSA was monitored at the excitation wavelength of 280 nm.

Assay [4] deals with human lung cancer cell line (A549). Put plainly: CCK-8 antiproliferative assay, A549. Type of assay: cell-based. As to conditions: A549, CCK-8, 72 h incubation.
Source text: as §1, §2

T1 sequence (P02769 25-607): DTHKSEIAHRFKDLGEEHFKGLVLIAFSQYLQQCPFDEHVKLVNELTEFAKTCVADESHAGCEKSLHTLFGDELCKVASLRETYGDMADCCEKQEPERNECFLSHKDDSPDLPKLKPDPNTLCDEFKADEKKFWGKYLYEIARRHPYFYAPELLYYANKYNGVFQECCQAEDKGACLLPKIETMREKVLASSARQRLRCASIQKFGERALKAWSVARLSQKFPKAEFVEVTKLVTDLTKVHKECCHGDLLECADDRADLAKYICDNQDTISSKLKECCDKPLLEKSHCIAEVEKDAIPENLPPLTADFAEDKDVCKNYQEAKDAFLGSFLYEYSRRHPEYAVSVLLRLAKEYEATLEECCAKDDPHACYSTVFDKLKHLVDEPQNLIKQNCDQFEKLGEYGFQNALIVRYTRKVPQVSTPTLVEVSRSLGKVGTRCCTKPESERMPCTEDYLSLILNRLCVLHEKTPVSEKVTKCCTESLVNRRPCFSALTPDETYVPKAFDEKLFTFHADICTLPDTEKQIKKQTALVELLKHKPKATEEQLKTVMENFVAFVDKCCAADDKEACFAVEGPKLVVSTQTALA

With `CS(=O)(=O)c1ccc(-c2cc(-c3ccccn3)nc(-c3ccccn3)c2)cc1.[Br][Zn][Br]` [Compound 1, [ZnBr2L^1]], the half-maximal inhibitory concentration (IC50) (in general, the midpoint of a concentration-inhibition curve) in assay [1] came out at 79 nM. Also, the concentration for half-maximal inhibition (IC50) in assay [2] worked out at 358 nM. Moreover, in assay [3], the “Ksv (Stern-Volmer quenching constant)” value turned out to be 176000 M⁻¹, the “n (binding site number)” value is on record as 0.72 and the Kq (quenching rate constant) is 1.76e+13 M⁻¹ s⁻¹.

Turning to `CS(=O)(=O)c1ccc(-c2cc(-c3ccccn3)nc(-c3ccccn3)c2)cc1.[I][Zn][I]` [Compound 2, [ZnI2L^1]], in assay [1], the midpoint of inhibition, the IC50, lay at 66 nM. This molecule registered a half-inhibitory concentration (IC50) in assay [4] of 290 nM. This molecule also showed a concentration for half-maximal inhibition (IC50) in assay [2] of 331 nM. In assay [3], the “Ksv (Stern-Volmer quenching constant)” value came out at 176000 M⁻¹, the “n (binding site number)” value was found to be 0.83 and the Kq (quenching rate constant) was found to be 1.76e+13 M⁻¹ s⁻¹.

`COc1ccc(-c2cc(-c3ccccn3)nc(-c3ccccn3)c2)cc1.[Br][Zn][Br]` [Compound 3, [ZnBr2L^2]]: the IC50 in assay [1] amounted to 169 nM; in assay [4], 482 nM; in assay [2] it was 414 nM. Moreover, the “Ksv (Stern-Volmer quenching constant)” value in assay [3] was 115000 M⁻¹. The “n (binding site number)” value in assay [3] was found to be 1.07. This molecule also gave a Kq (quenching rate constant) in assay [3] of 1.15e+13 M⁻¹ s⁻¹.

`COc1ccc(-c2cc(-c3ccccn3)nc(-c3ccccn3)c2)cc1.[I][Zn][I]` [Compound 4, [ZnI2L^2]] returned a concentration for half-maximal inhibition (IC50) in assay [1] of 75 nM. The same molecule yielded an IC50 in assay [4] of 307 nM. In addition, the midpoint of inhibition in assay [2], the IC50, lay at 397 nM. Besides, in assay [3], the “Ksv (Stern-Volmer quenching constant)” value is 163000 M⁻¹, the “n (binding site number)” value worked out at 1.08 and the Kq (quenching rate constant) was 1.63e+13 M⁻¹ s⁻¹.

As for `Cc1ccc(-c2cc(-c3ccccn3)nc(-c3ccccn3)c2)cc1.[Br][Zn][Br]` [Compound 5, [ZnBr2L^3]], the IC50 in assay [1] came out at 197 nM; in assay [4] it was 748 nM; in assay [2] it was 616 nM. In assay [3], the “Ksv (Stern-Volmer quenching constant)” value stood at 46300 M⁻¹. Further, the “n (binding site number)” value in assay [3] was determined as 0.87. Further, the Kq (quenching rate constant) in assay [3] turned out to be 4.63e+12 M⁻¹ s⁻¹.

Take `Cc1ccc(-c2cc(-c3ccccn3)nc(-c3ccccn3)c2)cc1.[I][Zn][I]` [Compound 6, [ZnI2L^3]]: in assay [1], the IC50 turned out to be 146 nM. The same molecule yielded an IC50 in assay [4] of 945 nM. In addition, in assay [3], the “Ksv (Stern-Volmer quenching constant)” value was 76700 M⁻¹, the “n (binding site number)” value came to 0.89 and the Kq (quenching rate constant) worked out at 7.67e+12 M⁻¹ s⁻¹.

On to `N.N.[Cl][Pt][Cl]` [cisplatin, reference compound], for which the half-maximal inhibitory concentration (IC50) came out at 5460 nM in assay [1], 12000 nM in assay [4] and 3090 nM in assay [2].

For the origin of these results see publication PMC7436059, “Synthesis, Characterization, Photoluminescence, Molecular Docking and Bioactivity of Zinc (II) Compounds Based on Different Substituents” (Molecules, 2020).
